Data as given in paper PMC6225228, “Design, Synthesis and Evaluation of N-pyrazinylbenzamides as Potential Antimycobacterial Agents” (Molecules : A Journal of Synthetic Chemistry and Natural …, 2018).
≈ marks a conversion by molar mass, not a printed value. Read-outs that look alike come from different tables or passages of the source.

How the values were obtained:
[1] = test system: Staphylococcus aureus H 5996/08 methicillin resistant; assay: microbe, parasite or virus in culture; format: cell-based; details: for MIC: Staphylococcus aureus, MRSA, read-out: MIC MRSA
Trichosporon asahii 1188 = assay: Antifungal microdilution broth, TA; format: cell-based; details: read-out: MIC TA
Candida glabrata 20/I = assay: Antifungal microdilution broth, CG; format: cell-based; details: Nakaseomyces glabratus, 20/I, read-out: MIC CG
[2] = test system: M. avium ssp. avium CNCTC My 80/72 (ATCC 15769); assay: Antimycobacterial microdilution MABA, M. avium; format: cell-based, Mycobacterium avium; details: Mycobacterium avium, ATCC15769, pH 6.6, read-out: M. avium ATCC 15769 MIC
[3] = test system: Candida albicans ATCC 44859; assay: Antifungal microdilution broth, CA; format: cell-based; details: Candida albicans, read-out: MIC CA
[4] = test system: Staphylococcus epidermidis H 6966/08; assay: Antibacterial microdilution broth, SE; format: cell-based; details: read-out: MIC SE
[5] = test system: Mycobacterium smegmatis CCM 4622 (ATCC 607); assay: Antimycobacterial microdilution, M. smegmatis; format: cell-based; details: Mycolicibacterium smegmatis, read-out: M. smeg. ATCC 607 MIC
[6] = test system: Staphylococcus aureus CCM 4516/08; assay: Antibacterial microdilution broth, SA; format: cell-based
Candida tropicalis 156 = assay: Antifungal microdilution broth, CT; format: cell-based; details: read-out: MIC CT
[7] = test system: Escherichia coli CCM 4517; assay: Antibacterial microdilution broth, EC; format: cell-based; details: Escherichia coli, read-out: MIC EC
[8] = test system: Lichtheimia corymbifera 272; assay: Antifungal microdilution broth, LC; format: cell-based; details: read-out: MIC LC
[9] = test system: Mycobacterium tuberculosis H37Rv CNCTC My 331/88 (ATCC 27294); assay: Antimycobacterial microdilution MABA, M. tuberculosis; format: cell-based; details: for Mtb H37Rv ATCC 27294 MIC: Middlebrook 7H9 with OADC growth supplement, pH = 6.6, MABA; for MIC: Mycobacterium tuberculosis, read-out: Mtb H37Rv ATCC 27294 MIC, Middlebrook 7H9 with OADC growth supplement, pH = 6.6, MABA
[10] = test system: Pseudomonas aeruginosa CCM 1961; assay: Antibacterial microdilution broth, PA; format: cell-based; details: Pseudomonas aeruginosa, read-out: MIC PA
[11] = test system: Trichophyton interdigitale 445; assay: Antifungal microdilution broth, TI; format: cell-based; details: read-out: MIC TI
[12] = test system: M. kansasii CNCTC My 235/80 (ATCC 12478); assay: Antimycobacterial microdilution MABA, M. kansasii; format: cell-based, Mycobacterium kansasii; details: Mycobacterium kansasii, ATCC12478, pH 6.6, read-out: M. kans. ATCC 12478 MIC, Middlebrook 7H9 with OADC, pH 6.6, MABA
[13] = test system: Enterococcus sp. J 14365/08; assay: Antibacterial microdilution broth, EF; format: cell-based; details: Enterococcus, read-out: MIC EF
[14] = test system: Aspergillus fumigatus 231; assay: Antifungal microdilution broth, AF; format: cell-based; details: read-out: MIC AF
Candida krusei E28 = assay: Antifungal microdilution broth, CK; format: cell-based; details: Pichia kudriavzevii, read-out: MIC CK
[15] = Trichosporon asahii, 1188, 24 h
[16] = Trichosporon asahii, 1188, 48 h
[17] = Staphylococcus epidermidis, H6966/08, 24 h
[18] = Staphylococcus epidermidis, H6966/08, 48 h
[19] = Staphylococcus aureus, CCM4516, 24 h, read-out: MIC SA, 24 h
[20] = Staphylococcus aureus, CCM4516, 48 h, read-out: MIC SA, 48 h
[21] = Lichtheimia corymbifera, 272, 24 h
[22] = Lichtheimia corymbifera, 272, 48 h
[23] = Trichophyton interdigitale, 445, 72 h
[24] = Trichophyton interdigitale, 445, 120 h
[25] = Aspergillus fumigatus, 231, 24 h
[26] = Aspergillus fumigatus, 231, 48 h

Structure (SMILES)	MIC ([1]; 24 h) [µM]	MIC ([1]; 48 h) [µM]	MIC (Trichosporon asahii 1188; [15]) [µM]	MIC (Trichosporon asahii 1188; [16]) [µM]	MIC (Candida glabrata 20/I; 24 h) [µM]	MIC (Candida glabrata 20/I; 48 h) [µM]	MIC [2] [µg/mL]	MIC ([3]; ATCC44859, 24 h) [µM]	MIC ([3]; ATCC44859, 48 h) [µM]	MIC [4, 17] [µM]	MIC [4, 18] [µM]	MIC [5] [µg/mL]	MIC [6, 19] [µM]	MIC [6, 20] [µM]	MIC (Candida tropicalis 156; Candida tropicalis, 156, 24 h) [µM]	MIC (Candida tropicalis 156; Candida tropicalis, 156, 48 h) [µM]	MIC ([7]; CCM4517, 24 h) [µM]	MIC ([7]; CCM4517, 48 h) [µM]	MIC [8, 21] [µM]	MIC [8, 22] [µM]	other results
COc1cccc(C(=O)Nc2cnccn2)c1 [Compound 1f]	> 500	> 500	> 500	> 500	> 500	> 500	> 100	> 500	> 500	> 500	> 500	≥ 500	> 500	> 500	> 500	> 500	> 500	> 500	> 500	> 500	Mtb H37Rv ATCC 27294 MIC [9]: >100 µg/mL; MIC [9]: > 100 µg/mL; MIC ([10]; CCM1961, 72 h): > 500 µM; MIC ([10]; CCM1961, 120 h): > 500 µM; MIC [11, 23]: > 500 µM; MIC [11, 24]: > 500 µM; MIC [12]: > 100 µg/mL; MIC ([13]; SP.J14365/08, 24 h): > 500 µM; MIC ([13]; SP.J14365/08, 48 h): > 500 µM; MIC [14, 25]: > 500 µM; MIC [14, 26]: > 500 µM; MIC (Candida krusei E28; E28, 24 h): > 500 µM; MIC (Candida krusei E28; E28, 48 h): > 500 µM
CCc1ccc(C(=O)Nc2cnccn2)cc1 [Compound 1i]	> 500	> 500	> 500	> 500	> 500	> 500	> 100	> 500	> 500	500 (≈ 114 µg/mL)	500 (≈ 114 µg/mL)	≥ 500	> 500	> 500	> 500	> 500	> 500	> 500	> 500	> 500	MIC [9]: > 100 µg/mL; MIC ([10]; CCM1961, 72 h): > 500 µM; MIC ([10]; CCM1961, 120 h): > 500 µM; MIC [11, 23]: > 500 µM; MIC [11, 24]: > 500 µM; MIC [12]: > 100 µg/mL; MIC ([13]; SP.J14365/08, 24 h): 500 µM (≈ 114 µg/mL); MIC ([13]; SP.J14365/08, 48 h): 500 µM (≈ 114 µg/mL); MIC [14, 25]: > 500 µM; MIC [14, 26]: > 500 µM; MIC (Candida krusei E28; E28, 24 h): > 500 µM; MIC (Candida krusei E28; E28, 48 h): > 500 µM
O=C(Nc1cnccn1)c1cccc(C(F)(F)F)c1 [Compound 1n]	> 125	> 125	> 125	> 125	> 125	> 125	> 100	> 125	> 125	62.5 (≈ 16.7 µg/mL)	62.5 (≈ 16.7 µg/mL)	≥ 500	> 125	> 125	> 125	> 125	> 125	> 125	> 125	> 125	MIC MRSA ([1]; 24 h): >125 µM; MIC MRSA ([1]; 48 h): >125 µM; MIC ([4]; 24 h): 62.50 µM (≈ 16.7 µg/mL); MIC ([4]; 48 h): 62.50 µM (≈ 16.7 µg/mL); MIC ([6]; 24 h, read-out: MIC SA): >125 µM; MIC ([6]; 48 h, read-out: MIC SA): >125 µM; Mtb H37Rv ATCC 27294 MIC [9]: >100 µg/mL; MIC [9]: > 100 µg/mL; MIC ([10]; CCM1961, 72 h): > 125 µM; MIC ([10]; CCM1961, 120 h): > 125 µM; MIC [11, 23]: > 125 µM; MIC [11, 24]: > 125 µM; MIC [12]: > 100 µg/mL; MIC ([13]; SP.J14365/08, 24 h): > 125 µM; MIC ([13]; SP.J14365/08, 48 h): > 125 µM; MIC [14, 25]: > 125 µM; MIC [14, 26]: > 125 µM; MIC (Candida krusei E28; E28, 24 h): > 125 µM; MIC (Candida krusei E28; E28, 48 h): > 125 µM
COc1cccc(C(=O)Nc2cnc(Cl)cn2)c1 [Compound 2f]	> 500	> 500	> 500	> 500	> 500	> 500	> 100	125 (≈ 33 µg/mL)	500 (≈ 132 µg/mL)	> 500	> 500	≥ 500	31.2 (≈ 8.24 µg/mL)	31.2 (≈ 8.24 µg/mL)	> 500	> 500	> 500	> 500	> 500	> 500	MIC MRSA ([1]; 24 h): >500 µM; MIC MRSA ([1]; 48 h): >500 µM; MIC ([4]; 24 h): >500 µM; MIC ([4]; 48 h): >500 µM; MIC [9]: > 100 µg/mL; MIC ([10]; CCM1961, 72 h): > 500 µM; MIC ([10]; CCM1961, 120 h): > 500 µM; MIC [11, 23]: > 500 µM; MIC [11, 24]: > 500 µM; MIC [12]: > 100 µg/mL; MIC ([13]; SP.J14365/08, 24 h): > 500 µM; MIC ([13]; SP.J14365/08, 48 h): > 500 µM; MIC [14, 25]: > 500 µM; MIC [14, 26]: > 500 µM; MIC (Candida krusei E28; E28, 24 h): > 500 µM; MIC (Candida krusei E28; E28, 48 h): > 500 µM
